Test results: patent US10624866B2, “Composition for prevention or treatment of chronic pain comprising Evans blue” (THE INDUSTRY & ACADEMIC COOPERATION IN CHUNGNAM NATIONAL …, priority 2018, dated 2020)

Experiments:
[1] = biological target: T1, vesicular nucleotide transporter (VNUT) of the dorsal root ganglia (Rattus norvegicus, UniProt P0DX21); test: Immunostaining with VNUT antibody after in vivo Evans blue injection, confocal microscopy; parameters: species or system white rat; conditions: dorsal root ganglia: axon, axon terminal and cell body; 2nd day after injection (FIGS. 4A to 4C)
T1 construct: examine the expression of VNUT in the dorsal root ganglia and dorsal horn of the spinal cord; from tissue; host or cells: rat dorsal root ganglia and spinal cord (L4 to L6) sections after in vivo Evans blue injection
T1 sequence (P0DX21 1-447): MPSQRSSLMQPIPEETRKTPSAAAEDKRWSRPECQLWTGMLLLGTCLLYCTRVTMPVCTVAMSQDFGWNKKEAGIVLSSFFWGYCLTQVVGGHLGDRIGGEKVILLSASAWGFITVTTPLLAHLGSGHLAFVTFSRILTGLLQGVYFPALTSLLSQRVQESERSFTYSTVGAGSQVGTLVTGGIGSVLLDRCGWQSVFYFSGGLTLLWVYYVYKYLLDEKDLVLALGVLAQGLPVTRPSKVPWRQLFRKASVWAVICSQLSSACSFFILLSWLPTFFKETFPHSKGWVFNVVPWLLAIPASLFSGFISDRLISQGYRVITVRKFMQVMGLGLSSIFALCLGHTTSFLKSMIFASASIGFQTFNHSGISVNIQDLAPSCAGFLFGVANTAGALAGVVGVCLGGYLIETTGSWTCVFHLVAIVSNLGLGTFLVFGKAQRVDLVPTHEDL
Experimental: To verify targeting VNUT of the dorsal root ganglia and dorsal horn of the spinal cord by Evans blue in vivo, VNUT was immune-stained, and Evans blue was administered in vivo to confirm whether it was targeted.
(§1) Specifically, it was immune-stained with VNUT antibody (green) to examine the expression of VNUT in the dorsal root ganglia and dorsal horn of the spinal cord. Evans blue was injected on the 7th day after the pain model surgery. On 2nd day after the injection of Evans blue, the white rat was anesthetized by intraperitoneal injection of sodium pentobarbital (100 mg/Kg). Then the phosphate buffer solution (PBS, pH 7.4) was intracardiac-perfused to entirely remove the blood, followed by perfusion with 4% paraformaldehyde to fix the result. Then, the spinal cord sites (L4 to L6) were carefully taken out, post-fixed in the same fixative overnight, and immersed in a 30% sucrose solution. Then, the tissues obtained by frozen sectioning of the spinal cord at […] were subjected to the normal serum blocking and then incubated overnight at 4° C. with VNUT (1:500; ABN 83; milipore) antibody. The next day, the result was washed with PBS and incubated with the cy2-conjugated secondary antibody (1:400) for 2 hours, and then the nuclear thereof was stained with DAPI. The tissues were attached to a slide glass and photographed using a confocal microscope (Leica, TCS SP8).

astrocytes = test: GFAP immunostaining of spinal cord tissue injected with Evans blue; assay type: in vivo, white rat; conditions: FIGS. 6D to 6F
[2] = system: microglia cells present in the dorsal horn of the spinal cord; test: Iba-1 immunostaining of spinal cord tissue injected with Evans blue; assay type: in vivo, white rat; conditions: laminas I to III (FIGS. 6A to 6C)
[3] = system: neurons of the dorsal horn in the spinal cord; test: NeuN immunostaining of spinal cord tissue injected with Evans blue; assay type: in vivo, white rat; conditions: dorsal horn of the spinal cord (FIGS. 5A to 5C)
Experimental: as §1
To determine whether Evans Blue targeted the neurons of the dorsal horn in the spinal cord, the spinal cord tissue injected with Evans blue was stained with NeuN, a marker for identifying neurons. […]

[4] = system: excitatory neurons located in the dorsal horn of the spinal cord; test: vGluT2 immunostaining of spinal cord tissue injected with Evans blue; assay type: in vivo, white rat; conditions: dorsal horn laminas I and II (FIGS. 5D to 5F)
[5] = system: inhibitory neurons distributed in laminas I and II; test: Calretinin immunostaining of spinal cord tissue injected with Evans blue; assay type: in vivo, white rat; conditions: laminas I and II (FIG. 4G, FIGS. 5G to 5I)
[6] = system: animal model of SNL neuropathic pain; test: von Frey filament test (mechanical allodynia) in spinal nerve ligation (SNL) model of neuropathic pain; assay type: in vivo, Sprague-Dawley rats
Experimental: 5-week-old male SD white rats (Sprague-Dawley rats, 150 to 180 g) were purchased and were kept in an environment where each of night and day was continuously kept for 12 hours, and the temperature was maintained at 22±2° C. Further, water and feed were freely available for rats, and the rats were fed three or less per cage. At 6 weeks of age after adapted in an experimental environment for 7 days before the experiment, the rats responsive to stimulation of 8 g or more of von Frey filament were only selected, and then the spinal nerve ligation (SNL) procedure was performed thereon, inducing neuropathic pain (NPP). More specifically, after general anesthesia with respiratory anesthesia with isoflurane, the left lumbar (L6) […] was carefully removed for differentiation of the L4 and L5 spinal nerves (FIGS. 1A to 1B), and then the L5 spinal nerve was ligated with a silk suture thread (3-0), and the wound was sutured to prepare an experimental animal model of SNL neuropathic pain (FIGS. 1C to 1D). The analgesic effect of Evans blue of the present disclosure was confirmed by measuring mechanical hyperalgesia using the animal model of neuropathic pain. The von Frey filament test (test for mechanical allodynia) is a method for measuring the degree of mechanical allodynia after animal pain modeling. The rats were placed in an acrylic box disposed on a wire mesh test bench with a mesh size of 2×2 mm and adapted for at least 15 minutes. After the rats became quiet in movement, the pain threshold values (g) of the rat were evaluated using the von Frey filaments (Stoelting, USA) having a thickness of 0.4, 0.6, 1, 2, 4, 6, 8, and 15 g. […] The central part thereof was stimulated with von Frey filaments. When there was a positive reaction, stimulation was performed with weak filaments. When there was no positive reaction, stimulation was performed with strong filaments. As a result, the reduction of the pain threshold for the von Frey filament test on the seventh day after the pain model surgery was the maximum. From the seventh day when the reduction of the pain threshold for the von Frey filament test after the pain model surgery was the maximum, Evans blue (EB) was injected intrathecal injection with a Hamilton syringe, and the hind paw of the […] was stimulated with the von Frey filament to the measure minimum pain threshold. Changes in pain threshold were measured after 2 hours, 1 day, 2 days, 3 days, 5 days, and 7 days. At this time, 10 μl physiological saline was administered to the control group, and Evans blue was administered at various concentrations (5, 15, and 50 μg/10 μl).

For `Cc1cc(-c2ccc(/N=N/c3ccc4c(S(=O)(=O)O)cc(S(=O)(=O)O)c(N)c4c3O)c(C)c2)ccc1/N=N/c1ccc2c(S(=O)(=O)O)cc(S(=O)(=O)O)c(N)c2c1O` [Evans blue], the “overlap of Evans blue signal with VNUT expression” value [1] was “overlaps”, the “overlap of GFAP (astrocyte marker) signal with Evans blue” value (astrocytes) was “did not overlap” and the “overlap of Iba-1 (microglial cell marker) signal with Evans blue signal” value [2] was “partially overlapped”. The “overlap of NeuN (neuron marker) signals with Evans blue” value [3] was “most signals of NeuN, which is a neuron marker, overlapped”, the “targeting of excitatory neurons (vGluT2 stained around cell bodies of neurons targeted by Evans blue)” value [4] was “targeted excitatory neurons” and the “overlap of calretinin (inhibitory neurons) with Evans blue” value [5] was “did not overlap”. For the same molecule, the “intensity of pain (pain threshold) than before Evans blue treatment (0D)” value (shortened to “intensity of pain … (0D)”) ([6]; 5 μg intrathecal, on the 2nd and 3rd day (p<0.05)) was “significant increase”, the “intensity of pain … (0D)” value ([6]; 15 μg intrathecal, after 2 hours and the 1st day (p<0.05)) was “significant increase” and the “intensity of pain … (0D)” value ([6]; 50 μg intrathecal, after 2 hours and the 1st day (p<0.01), the 2nd day (p<0.001), the 3rd day, the 5th day (p<0.05)) was “significant increase”. The “intensity of pain (pain threshold) compared to the control group treated with physiological saline” value ([6]; 50 μg intrathecal, on the 2nd day (p<0.001)) was “significant increase”, the “analgesic effect on pain (pain threshold, von Frey filament test)” value ([6]; SNL rats, intrathecal injection on day 7 after surgery, 5, 15 and 50 μg/10 μl, versus control group treated only with physiological saline) was “overall increased meaningfully” and the “time of peak analgesic effect” value ([6]; after intrathecal injection, gradually decreased thereafter) was 3 days.
